Source: PubChem BioAssay AID624330 (Southern Research Specialized Biocontainment Screening …, 2012)

Molecular target: Rac GTPase-activating protein 1 (Homo sapiens) (UniProt Q9H0H5)
Experiment: MgcRacGAP GTPase-activating activity inhibitors, confirmation, biochemical, ADP Hunter fluorescence, primary and confirmatory (AID 624330);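 note: fluorescence reports GDP produced by GAP-driven GTP hydrolysis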
Details: MgcRacGAP-stimulated Rac1 GTP hydrolysis, GST-tagged Rac1 F28L mutant substrate

Rac GTPase-activating protein 1 (Homo sapiens), sequence (Q9H0H5 whole entry, looked up): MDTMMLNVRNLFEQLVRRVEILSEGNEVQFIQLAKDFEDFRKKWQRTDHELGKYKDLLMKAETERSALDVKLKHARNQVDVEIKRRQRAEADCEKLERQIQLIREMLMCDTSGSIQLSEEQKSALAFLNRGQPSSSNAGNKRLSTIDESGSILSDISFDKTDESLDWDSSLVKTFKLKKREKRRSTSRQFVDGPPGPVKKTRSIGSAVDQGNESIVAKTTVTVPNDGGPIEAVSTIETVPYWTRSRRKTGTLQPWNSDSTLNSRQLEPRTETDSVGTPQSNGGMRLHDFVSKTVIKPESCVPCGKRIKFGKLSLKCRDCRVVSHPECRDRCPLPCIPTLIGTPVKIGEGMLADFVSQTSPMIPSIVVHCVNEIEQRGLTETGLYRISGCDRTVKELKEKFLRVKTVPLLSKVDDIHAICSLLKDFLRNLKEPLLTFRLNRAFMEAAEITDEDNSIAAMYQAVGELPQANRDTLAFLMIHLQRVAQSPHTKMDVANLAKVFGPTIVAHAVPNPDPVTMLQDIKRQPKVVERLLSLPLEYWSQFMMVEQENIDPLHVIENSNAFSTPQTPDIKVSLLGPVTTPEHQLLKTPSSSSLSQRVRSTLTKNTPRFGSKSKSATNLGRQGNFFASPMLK

Structure (SMILES)	IC50
C#CCOCCOCCOCCNc1nc(N2CCN(C(=O)[C@H](CCCCN)n3cc([C@@H](N)C(C)CC)nn3)CC2)nc(N2CCN(C(=O)[C@H](Cc3cc4ccccc4[nH]3)n3cc([C@@H](N)C(C)CC)nn3)CC2)n1 (some centres not stated)	67.9 µM
C#CCOCCOCCOCCNc1nc(N2CCN(C(=O)CCCCCCCCCCNC(=O)[C@@H](CCSC)n3cc(CCO)nn3)CC2)nc(N2CCN(C(=O)CCCCCCCCCCNC(=O)[C@H](CO)n3cc(CCCCCN)nn3)CC2)n1	49.6 µM
